The values below come from patent US7638509B2, “Diene compounds and formulations” (priority 2003, dated 2009).

The target in one assay is T1, mutant AR (Homo sapiens, UniProt P10275, T878A).
T1 construct: LNCaP without transfection; endogenous in cells; host or cells: LNCaP
T1 sequence (P10275 1-920 T878A): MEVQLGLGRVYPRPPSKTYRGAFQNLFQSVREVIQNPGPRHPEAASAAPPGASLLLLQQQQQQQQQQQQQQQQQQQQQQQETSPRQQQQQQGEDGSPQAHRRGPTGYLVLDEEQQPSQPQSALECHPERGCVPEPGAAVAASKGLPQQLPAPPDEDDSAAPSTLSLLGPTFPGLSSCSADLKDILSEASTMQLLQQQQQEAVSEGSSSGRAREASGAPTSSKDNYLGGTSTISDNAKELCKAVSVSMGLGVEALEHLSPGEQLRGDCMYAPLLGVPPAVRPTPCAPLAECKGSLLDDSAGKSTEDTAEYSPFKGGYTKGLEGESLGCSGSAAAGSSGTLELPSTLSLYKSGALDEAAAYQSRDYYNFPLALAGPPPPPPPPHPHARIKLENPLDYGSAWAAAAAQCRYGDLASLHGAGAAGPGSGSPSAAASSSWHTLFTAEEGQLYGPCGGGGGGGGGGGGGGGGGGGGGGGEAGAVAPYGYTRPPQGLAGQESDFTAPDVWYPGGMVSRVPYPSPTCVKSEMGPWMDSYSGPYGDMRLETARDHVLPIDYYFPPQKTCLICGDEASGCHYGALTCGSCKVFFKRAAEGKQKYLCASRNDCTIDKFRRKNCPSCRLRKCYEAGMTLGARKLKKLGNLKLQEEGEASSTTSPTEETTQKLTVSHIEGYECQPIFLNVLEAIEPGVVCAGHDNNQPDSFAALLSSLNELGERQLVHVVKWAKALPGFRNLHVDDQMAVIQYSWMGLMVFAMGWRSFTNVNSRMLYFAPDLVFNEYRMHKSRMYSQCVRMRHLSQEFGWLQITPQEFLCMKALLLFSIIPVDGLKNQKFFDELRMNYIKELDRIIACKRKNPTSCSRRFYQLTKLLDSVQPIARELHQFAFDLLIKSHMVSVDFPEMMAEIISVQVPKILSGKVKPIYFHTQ
Briefly: AR transcription, MMTV-Luc reporter in LNCaP cells. The assay is classed as cell-based. On the procedure:
(§1) Cell Culture, Transfection, and Reporter Gene Assay. The human prostate cancer cell lines, LNCaP, PC-3, and DU145, and non-prostate cancer cell line COS-1 were maintained in RPMI or Dulbecco's modified Eagle's medium (DMEM) (Life Technologies) supplemented with 10% fetal bovine serum (FBS). […] Briefly, cells seeded to reach a density of 50-60% confluence in 12 well tissue culture plates were transfected with 1.5 μg of DNA according to “SuperFect transfection” instructions (Qiagen). After 2-3 h incubation, cells were treated with medium supplemented with charcoal-stripped FBS containing either ethanol or ligands for 24 h. The cells were then harvested and whole cell extracts were used for Luc assay. The Luc activity was determined using a Dual-Luciferase Reporter Assay System (Promega) and luminometer.
(§2) The pSG5-AR was co-transfected in COS-1 cells. […] Values were obtained from the mean±SD of at least three determinations. DU145 cells were transfected with the pSG5-AR and MMTV-Luc in the presence or absence of pSG5-ARA70. […] Values were obtained for the mean±SD of at least three determinations.

For a further assay, the system named is PSA. Briefly: PSA expression in LNCaP cells, Western blot. In kind it is cell-based, human. The conditions noted are these: 48 h, 1 nM DHT or 1 μM HF, casodex, ADEK in absence of DHT.
Assay [1] deals with T2, AR (Homo sapiens, UniProt P10275, T878A).
T2 construct: LNCaP without transfection; endogenous in cells; host or cells: LNCaP
T2 sequence (P10275 1-920 T878A): T1 sequence (P10275 1-920 T878A)
The assay can be described thus: Competitive [3H]-R1881 ligand binding assay, LNCaP whole cell extracts. The conditions noted are these: 1 nM [3H]-R1881, unlabeled ligand 1-10,000 nM, relative to DHT. On the procedure: (§3) Ligand Binding Assay. Whole cell extracts from COS-1 with transient transfection of pSG5-AR, or LNCaP without transfection, were incubated for 2 h at 37° C. with 1 nM [^3H]-synthetic androgen methyltrienolone (R1881) in the presence and absence of increasing concentrations (1-10,000 nM) of unlabeled ligands. Then, hydroxyapatite (Bio-Rad) was added and stirred for 15 min at 4° C. After centrifugation and washing, radioactivity was determined by scintillation counting.
(§4) Clinically available antiandrogens have an affinity for the AR, allowing a competition with androgens for binding. To determine whether ADEK has this common feature of AR antagonists, the competitive androgen binding assay was performed.

For assay [2], the target named is T2, AR. The assay can be described thus: Adiol-induced AR transcription, MMTV-Luc in LNCaP cells. In kind it is cell-based. The conditions noted are these: 2.5 nM Adiol, compound at 1 μM. On the procedure: (§5) Cell Culture, Transfection, and Reporter Gene Assay. The human prostate cancer cell lines, LNCaP, PC-3, and DU145, and non-prostate cancer cell line COS-1 were maintained in RPMI or Dulbecco's modified Eagle's medium (DMEM) (Life Technologies) supplemented with 10% fetal bovine serum (FBS). Transfections and luciferase (Luc) assays were performed as previously described (Miyamoto, H., Yeh, S., Wilding, G. & Chang, C. (1998) Proc. Natl. Acad. Sci. USA 95, 7379-7384; Miyamoto, H., Rahman, M., Takatera, H., Kang, H.-Y., Yeh, S., Chang, H.-C., Nishimura, K., Fujimoto, N. & Chang, C. (2002) J. Biol. Chem. 277, 4609-4617). Briefly, cells seeded to reach a density of 50-60% confluence in 12 well tissue culture plates were transfected with 1.5 μg of DNA according to “SuperFect transfection” instructions (Qiagen). After 2-3 h incubation, cells were treated with medium supplemented with charcoal-stripped FBS containing either ethanol or ligands for 24 h. The cells were then harvested and whole cell extracts were used for Luc assay. The Luc activity was determined using a Dual-Luciferase Reporter Assay System (Promega) and luminometer.
(§6) Effect of ADEK on AR Transcription. […] (set as 100%). Values were obtained from the mean±SD of at least three determinations.

Assay [3] concerns the target T3, wild-type AR (Homo sapiens, UniProt P10275).
T3 sequence (P10275 1-920): T1 sequence (P10275 1-920 T878A) with A878T
The assay can be described thus: Adiol-induced AR transcription, MMTV-Luc in PC-3 cells with pSG5-AR. Details: expressed in transfected cells; host or cells: PC-3. The assay is classed as cell-based. The note with it: PC-3, 2.5 nM Adiol, compound at 1 μM. On the procedure:
as §5, §6

Assay [4] concerns the target T3, wild-type AR. Briefly: AR transcription, MMTV-Luc reporter in COS-1 cells co-transfected with pSG5-AR. In kind it is cell-based. Details: expressed in transfected cells; host or cells: COS-1. The conditions noted are these: COS-1, 1 nM DHT. On the procedure: as §1, §2
In assay [5] the target is T3, wild-type AR. The assay can be described thus: Competitive [3H]-R1881 ligand binding assay, extracts of COS-1 transfected with wild-type AR. Further details: expressed in transfected cells; host or cells: COS-1. The note with it: 1 nM [3H]-R1881, unlabeled ligand 1-10,000 nM, relative to DHT. On the procedure:
as §3, §4

Numbering of substitutions follows the chain as printed.

Description for PSA: Western Blot. […] An antibody for -actin (Santa Cruz Biotechnology) was used as the internal control. Blots were quantitated by Collage software (Fotodyne).
The 33-kDa protein was quantitated. β-Actin expression was used as an internal control. […] The mean±SD of three separate experiments was determined. […] Total cell number was counted by hemocytometer. The mean of at least three determinations was determined.

`CC(C)(O)C(=O)Nc1ccc([N+](=O)[O-])c(C(F)(F)F)c1` [HF, hydroxyflutamide, reference compound]: at mutant AR (10 μM), the “suppression of DHT-induced mutant AR transcription (in words)” value is on record as “no suppression”. Further, the “agonist / androgenic activity on mutant AR transcription (in words)” value on mutant AR (MMTV-Luc, HF at 10 μM) was “full agonist”. Further, the “endogenous PSA expression over mock treatment” value in the assay on PSA was 3.5 fold. The “RBA in LNCaP” value at AR [1] is given as 23.0. The “block of Adiol-induced AR transcription (in words)” value on AR [2] and on wild-type AR [3] was “failed to significantly block” throughout. For the same compound, the “suppression of DHT-induced wild-type AR transcription compared with ADEK at 1 μM (21%), in words” value at wild-type AR [4] is listed as “similar”. Also, on wild-type AR [5], the “RBA in COS-1 with AR” value is 17.1.
